Patent US20260034123A1 (Cedilla Therapeutics, Inc., priority 2022, published 2026)

What was measured:
CDK2/Cyclin E1 = CDK2/Cyclin E1 (Homo sapiens, UniProt P24941); test: ADP-Glo Luminescent Kinase Assay (CDK2/E1-37C); format: biochemical; conditions: 0.18 nM CDK2/Cyclin E1, 100 μM ATP, Histone H1, 37° C.; read-out: ADPGLO (CDK2/E1-37C): IC50
Outline: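 IC50 fitted by four-parameter equation from ADP-Glo luminescence converted to % activity. Compounds were preincubated 60 min at 37 °C with enzyme, then kinase reaction ran 90 min at 37 °C with 0.18 nM enzyme, 100 μM ATP, Histone H1 ([…]), pH 7.5 HEPES, Mg2+, DTT.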

Kuramochi cells RB-WT = test: IncuCyte Kuramochi cell proliferation assay, RB-WT; format: cell-based; conditions: 72 hours, cell count
Outline: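 GI50 was derived by curve-fitting DMSO-normalized fold change in nuclear count between 0 and 72 h. Counts came from images of Kuramochi cells carrying mApple-H2B. Compounds were dosed over 10 points at 1/2-log spacing from a 20 µM top concentration.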

Kuramochi cells RB-KO = test: IncuCyte Kuramochi cell proliferation assay, RB-KO; format: cell-based; conditions: 72 hours, cell count, batch mean
Method: IncuCyte® assay was used to measure the effect of disclosed compounds on cell proliferation. Fluorescent microscopy images of cells were taken immediately after compound treatment and 72 hours later. Image analysis software was used to obtain cell counts as a function of compound concentration. Kuramochi cells labeled with mApple-H2B were seeded on 384-well assay-ready plates. Plates were placed in an IncuCyte® (Sartorius) and scanned at 0 and 72 hours. IncuCyte® software was used to count the number of fluorescent nuclei in each well. The fold change in cell count from 0 to 72 hours in wells treated with increasing compounds concentrations (10 pts, 1/2 log dilution, 20 µM top concentration) was normalized to DMSO control wells. The normalized cell counts were fit with dose response curves and a GI50 was calculated.

SMILES | IC50 (CDK2/Cyclin E1) | IC50 (Kuramochi cells RB-WT) | IC50 (Kuramochi cells RB-KO)
CC(C)(C(=O)N1CC2(CN(C(=O)c3cnn(Cc4ccc(F)cc4)c3)C[C@H]2COCc2cccc(C3CCC(C(F)(F)F)CC3)c2CC(=O)O)C1)C(F)(F)F (stereo partly drawn) [I′-23, (S)-2-(2-(((6-(1-(4-fluorobenzyl)-1H-pyrazole-4-carbonyl)-2-(3,3,3-trifluoro-2,2-dimethylpropanoyl)-2,6-diazaspiro[3.4]octan-8-yl)methoxy)methyl)-6-(4-(trifluoromethyl)cyclohexyl)phenyl)acetic acid] | ≤ 0.5 µM | ≤ 0.5 µM | > 10 µM
CC(C)(C(=O)N1CC2(CN(C(=O)c3cnn(Cc4ccc(F)cc4)c3)C[C@H]2COCc2cccc(C3CCC(F)(F)CC3)c2-c2nn[nH]n2)C1)C(F)(F)F [I′-24] | ≤ 0.5 µM | 0.5 to 5 µM | > 10 µM
O=C(O)c1c(CCC2CN(C(=O)c3cnn(Cc4ccc(F)cc4)c3)CC23CN(C(=O)C2(C(F)(F)F)CC2)C3)cccc1C1CCC(F)(F)CC1 (stereo not drawn) [I′-29] | ≤ 0.5 µM | > 10 µM | > 10 µM
O=C(O)c1c(OCCC2CN(C(=O)c3cnn(Cc4ccc(F)cc4)c3)CC23CN(C(=O)C2(C(F)(F)F)CC2)C3)cccc1C1CCC(F)(F)CC1 (stereo not drawn) [I′-32, 2-(4,4-difluorocyclohexyl)-6-(2-(6-(1-(4-fluorobenzyl)-1H-pyrazole-4-carbonyl)-2-(1-(trifluoromethyl)cyclopropane-1-carbonyl)-2,6-diazaspiro[3.4]octan-8-yl)ethoxy)benzoic acid] | ≤ 0.5 µM | ≤ 0.5 µM | 5 to 10 µM
NC(=O)c1c(COC[C@@H]2CN(c3cc(F)c(F)c4ncsc34)CC23CN(C(=O)C2(C(F)(F)F)CC2)C3)cccc1C1CCC(F)(F)CC1 [I′-33, 2-(((6-(4,5-difluorobenzo[d]thiazol-7-yl)-2-(1-(trifluoromethyl)cyclopropane-1-carbonyl)-2,6-diazaspiro[3.4]octan-8-yl)methoxy)methyl)-6-(4,4-difluorocyclohexyl)benzamide] | ≤ 0.5 µM | > 10 µM | > 10 µM
O=C(O)c1c(COC[C@@H]2CN(c3cc(F)c(F)c4ncsc34)CC23CN(C(=O)C2(C(F)(F)F)CC2)C3)cccc1C1CCC(C(F)(F)F)CC1 (stereo partly drawn) [I′-34, (S)-2-(((6-(4,5-difluorobenzo[d]thiazol-7-yl)-2-(1-(trifluoromethyl)cyclopropane-1-carbonyl)-2,6-diazaspiro[3.4]octan-8-yl)methoxy)methyl)-6-(4-(trifluoromethyl)cyclohexyl)benzoicacid] | ≤ 0.5 µM | ≤ 0.5 µM | > 10 µM
CC1(C)C[C@@H]1C(=O)N1CC2(CN(C(=O)c3cnn(Cc4ccc(F)cc4)c3)C[C@H]2COCc2cccc(C3CCC(F)(F)CC3)c2C(=O)OCCN2CCOCC2)C1 [I′-36, 2-morpholinoethyl 2-(4,4-difluorocyclohexyl)-6-((((S)-2-((S)-2,2-dimethylcyclopropane-1-carbonyl)-6-(1-(4-fluorobenzyl)-1H-pyrazole-4-carbonyl)-2,6-diazaspiro[3.4]octan-8-yl)methoxy)methyl)benzoate] | ≤ 0.5 µM | ≤ 0.5 µM | 0.5 to 5 µM
CC(C)(C(=O)N1CC2(CN(C(=O)c3cnn(Cc4ccc(F)cc4)c3)C[C@H]2COCc2cccc(-c3ccccc3)c2)C1)C(F)(F)F [I′-39] | 0.5 to 5 µM | > 10 µM | > 10 µM
Cc1cc(N2C[C@@H](COCc3cccc(C4CCC(F)(F)CC4)c3C(=O)O)C3(CN(C(=O)C4(C(F)(F)F)CC4)C3)C2)c2scnc2c1C [I′-41] | > 10 µM | 5 to 10 µM | > 10 µM
CC(C)(C(=O)N1CC2(CN(C(=O)c3cnn(Cc4cc(F)cc(F)c4)c3)C[C@H]2COCc2cccc(C3CCC(F)(F)CC3)c2C(=O)O)C1)C(F)(F)F [I′-45, (S)-2-(((6-(1-(3,5-difluorobenzyl)-1H-pyrazole-4-carbonyl)-2-(3,3,3-trifluoro-2,2-dimethylpropanoyl)-2,6-diazaspiro[3.4]octan-8-yl)methoxy)methyl)-6-(4,4-difluorocyclohexyl)benzoic acid] | ≤ 0.5 µM | 0.5 to 5 µM | > 10 µM
O=C(O)c1c(/C=C/CC2CN(C(=O)c3cnn(Cc4ccc(F)cc4)c3)CC23CN(C(=O)C2(C(F)(F)F)CC2)C3)cccc1C1CCC(F)(F)CC1 (stereo not drawn) [I′-46] | 0.5 to 5 µM | 5 to 10 µM | > 10 µM

The next lines start with results.

IC50 (CDK2/Cyclin E1) | SMILES | IC50 (Kuramochi cells RB-WT) | IC50 (Kuramochi cells RB-KO)
≤ 0.5 µM | CC1(C)C[C@@H]1C(=O)N1CC2(CN(C(=O)c3cnn(Cc4ccc(F)cc4)c3)C[C@H]2COCc2cccc(C3CCC(F)(F)CC3)c2C(=O)NCCN2CCOCC2)C1 [I′-25, 2-(4,4-difluorocyclohexyl)-6-((((S)-2-((S)-2,2-dimethylcyclopropane-1-carbonyl)-6-(1-(4-fluorobenzyl)-1H-pyrazole-4-carbonyl)-2,6-diazaspiro[3.4]octan-8-yl)methoxy)methyl)-N-(2-morpholinoethyl)benzamide] | > 10 µM | > 10 µM
≤ 0.5 µM | CC(C)(C(=O)N1CC2(CN(C(=O)c3cnn(Cc4ccc(F)cc4)c3)C[C@H]2COCc2cccc(-c3csc(C(F)(F)F)c3)c2C(=O)O)C1)C(F)(F)F [I′-26, (S)-2-(((6-(1-(4-fluorobenzyl)-1H-pyrazole-4-carbonyl)-2-(3,3,3-trifluoro-2,2-dimethylpropanoyl)-2,6-diazaspiro[3.4]octan-8-yl)methoxy)methyl)-6-(5-(trifluoromethyl)thiophen-3-yl)benzoic acid] | ≤ 0.5 µM | > 10 µM
≤ 0.5 µM | CC(C)(C(=O)N1CC2(CN(C(=O)c3cnn(Cc4ccc(F)cc4)c3)C[C@H]2COCc2cccc(-c3cccc(C(F)(F)F)c3)c2C(=O)O)C1)C(F)(F)F [I′-27, (S)-3-(((6-(1-(4-fluorobenzyl)-1H-pyrazole-4-carbonyl)-2-(3,3,3-trifluoro-2,2-dimethylpropanoyl)-2,6-diazaspiro[3.4]octan-8-yl)methoxy)methyl)-3′-(trifluoromethyl)-[1,1′-biphenyl]-2-carboxylic acid] | 5 to 10 µM | > 10 µM
≤ 0.5 µM | CC(C)(C(=O)N1CC2(CN(C(=O)c3cnn(Cc4ccc(F)cc4)c3)C[C@H]2COCc2cccc(-c3cccc(F)c3)c2C(=O)O)C1)C(F)(F)F [I′-28] | 5 to 10 µM | > 10 µM
≤ 0.5 µM | CC(C)(C(=O)N1CC2(CN(C(=O)c3cnn(Cc4ccc(F)cc4)c3)C[C@H]2COCc2cccc(C3CCC(F)(F)CC3)c2C(=O)OCCN2CCOCC2)C1)C(F)(F)F [I′-31] | 0.5 to 5 µM | 5 to 10 µM
≤ 0.5 µM | CC(C)(C(=O)N1CC2(CN(C(=O)c3cnn(Cc4ccc(F)cc4)c3)C[C@H]2COCc2cccc(C3CCC(F)(F)CC3)c2C#N)C1)C(F)(F)F [I′-35] | 0.5 to 5 µM | > 10 µM
≤ 0.5 µM | CC(C)(C(=O)N1CC2(CN(C(=O)c3cnn(Cc4ccc(F)cc4)c3)C[C@H]2COCc2cccc(C3=CCC(F)(F)CC3)c2C(=O)O)C1)C(F)(F)F [I′-37] | ≤ 0.5 µM | > 10 µM
≤ 0.5 µM | CC(C)(C(=O)N1CC2(CN(C(=O)c3cnn(Cc4ccc(F)cc4)c3)C[C@H]2COCc2cccc(-c3ccc(F)cc3)c2C(=O)O)C1)C(F)(F)F [I′-38] | 5 to 10 µM | > 10 µM
0.5 to 5 µM | CC(C)(C(=O)N1CC2(CN(C(=O)c3cnn(Cc4ccc(F)cc4)c3)C[C@H]2COCc2cccc(-c3ccccc3C(=O)O)c2)C1)C(F)(F)F [I′-40] | 0.5 to 5 µM | 5 to 10 µM
≤ 0.5 µM | CC1(C)C[C@@H]1C(=O)N1CC2(CN(C(=O)c3cnn(Cc4ccc(F)cc4)c3)C[C@H]2COCc2cccc(C3CCC(F)(F)CC3)c2C#N)C1 [I′-42, 2-(4,4-difluorocyclohexyl)-6-((((S)-2-((S)-2,2-dimethylcyclopropane-1-carbonyl)-6-(1-(4-fluorobenzyl)-1H-pyrazole-4-carbonyl)-2,6-diazaspiro[3.4]octan-8-yl)methoxy)methyl)benzonitrile] | 0.5 to 5 µM | 0.5 to 5 µM
≤ 0.5 µM | CC1(C)C[C@@H]1C(=O)N1CC2(CN(C(=O)c3cnn(Cc4ccc(F)cc4)c3)C[C@H]2COCc2cccc(C3CCC(F)(F)CC3)c2-c2nn[nH]n2)C1 [I′-43, ((S)-8-(((3-(4,4-difluorocyclohexyl)-2-(2H-tetrazol-5-yl)benzyl)oxy)methyl)-2-((S)-2,2-dimethylcyclopropane-1-carbonyl)-2,6-diazaspiro[3.4]octan-6-yl)(1-(4-fluorobenzyl)-1H-pyrazol-4-yl)methanone] | ≤ 0.5 µM | 5 to 10 µM
≤ 0.5 µM | CS(=O)(=O)NC(=O)c1c(COC[C@@H]2CN(C(=O)c3cnn(Cc4ccc(F)cc4)c3)CC23CN(C(=O)C2(C(F)(F)F)CC2)C3)cccc1C1CCC(F)(F)CC1 [I′-44, (S)-2-(4,4-difluorocyclohexyl)-6-(((6-(1-(4-fluorobenzyl)-1H-pyrazole-4-carbonyl)-2-(1-(trifluoromethyl)cyclopropane-1-carbonyl)-2,6-diazaspiro[3.4]octan-8-yl)methoxy)methyl)-N-(methylsulfonyl)benzamide] | 0.5 to 5 µM | > 10 µM
